Experimental data: US5086165A, “Inhibitors of retroviral protease with a ketomethylene isosteric replaced amide bond” (Washington University, priority 1991, dated 1992)
Where “and” joins values, the source holds several entries; their conditions need not be identical. Equal entries are not always repeated. Where two headings read alike, the source gives them in different places. Where a SMILES comes first, the peptide text is derived from it.

How the values were obtained:
[1] = molecular target: T1, retroviral protease (HIV-1) (Human immunodeficiency virus type 1 group M subtype B, UniProt P04585); test: fluorometric assay for HIV protease (Toth and Marshall); format: biochemical; settings: for IC50: where isomers were resolved, activities of both isomers are shown; for inhibition at 10 µM: read-out: percent at 10 μM, at 10 μM
T1 construct: the retroviral protease, is contained within the polyprotein
Procedure: These peptide analogs were assayed in solution for their ability to inhibit retroviral protease (HIV-1) by a fluorometric assay for HIV protease as described by Toth and Marshall, Int. J. Peptide Protein Res. 36, 546-550 (1990), and in U.S. Pat. No. 5,011,910.
Table 2, below, sets forth the median inhibitory concentration, IC50, (μM) for the compounds thus tested. In those cases where the isomers were resolved, the activities of both isomers are shown.

HIV protease [2] = molecular target: T2, HIV protease (Human immunodeficiency virus type 1 group M subtype B, UniProt P04585); format: biochemical; parameters: made in house; host or cells: chemical synthesis (gift of Dr. Stephen Kent, Caltech) or E. coli (gift of Dr. George Glover, Monsanto); settings: for Relative Rate: relative cleavage rate: percent of standard substrate concentration cleaved in twenty minutes, control Ac-Thr-Ile-Met-Met-Gln-Arg-NH2 = 1.00
Procedure: HIV protease assay. The HIV protease assay was conducted using either synthetic HIV protease [Schneider and Kent, Cell 54, 363 (1988)] kindly supplied by Dr. Stephen Kent of Caltech, or cloned material expressed in E. coli supplied by Dr. George Glover of the Monsanto Company. […] Synthetic protease (1 mg/ml) was dissolved in a buffer (20 mM PIPES, 0.5% NP-40 detergent, 1 mM dithiothreitol), pH 6.5 . Substrates were also dissolved in the same buffer at 1 mg/ml concentration. 5 μl 1 of substrate and 5 μl of HIV protease were added to an Eppendorf tube which was centrifuged for one minute and incubated at 25° for the desired time. The reaction was stopped by the addition of 50 μl of 50% TFA. The sample was diluted with 200 μl of water and applied to a C4 HPLC column developed with 0.1% TFA for 5 min followed by a gradient of 0-50% acetonitrile in 50 min. For inhibitor studies, 5 μl of the protease solution was preincubated for 10 min with the 5 μl of inhibitor (dissolved in 10% DMSO and diluted to 1 mg/ml with buffer). Then 5 μl of test substrate, acetyl-Thr-Ile-Met-Met-Gln-Arg-NH2 was added in order to determine inhibition of cleavage. Reactions were stopped as above and cleavage rates were monitored by HPLC as above.
Substrate analogs were prepared in order to examine the relative hydrolysis rates of the various sites. […] Relative cleavage rates were measured by comparing the percent of a standard substrate concentration cleaved by the same concentration of enzyme in twenty minutes (linear portion of curve).

HIV protease [3] = molecular target: T2, HIV protease; settings: cited from earlier work

CCCC[C@H](NC(=O)[C@@H](NC(=O)[C@@H](NC(=O)c1ccccc1N)[C@@H](C)O)[C@@H](C)CC)C(=O)CC(Cc1ccc2ccccc2c1)C(=O)N[C@@H](CCC(N)=O)C(=O)N[C@@H](CCCNC(=N)N)C(N)=O (stereo partly drawn) [Abz-Thr-Ile-Nle-.PSI.(K)2-Nal-Gln-Arg-NH2] (HELM PEPTIDE1{[Nc1ccccc1C(=O)[*:2]].T.I.[CCCC[C@H](N[*:1])C(=O)CC(Cc1ccc2ccccc2c1)C(=O)[*:2]].Q.R.[am]}$$$$V2.0)
IC50 [1]: 4.8 nM

CC[C@H](C)[C@H](NC(=O)[C@@H](NC(=O)c1ccccc1N)[C@@H](C)O)C(=O)N[C@@H](Cc1ccccc1)C(=O)CC(C)C(=O)N[C@@H](CCC(N)=O)C(=O)N[C@@H](CCCNC(=N)N)C(N)=O (stereo partly drawn) [Abz-Thr-Ile-Phe.PSI.(K)Ala-Gln-Arg-NH2] (HELM PEPTIDE1{[Nc1ccccc1C(=O)[*:2]].T.I.[CC(CC(=O)[C@H](Cc1ccccc1)N[*:1])C(=O)[*:2]].Q.R.[am]}$$$$V2.0)
IC50 [1]: 33 nM

CCCC[C@H](NC(=O)c1ccc2ccccc2n1)C(=O)CC(Cc1ccc2ccccc2c1)C(=O)N[C@@H](CCC(N)=O)C(=O)N[C@@H](CCCNC(=N)N)C(N)=O (stereo partly drawn) [Qua--Nle.psi.(K)2-Nal--Gln--Arg--NH2, Qua-Nle.PSI.(K)2-Nal-Gln-Arg-NH2]
inhibition at 10 µM [1]: 96%

CCCC[C@H](NC(=O)[C@@H](NC(=O)c1ccc2ccccc2n1)[C@@H](C)CC)C(=O)CC(Cc1ccc2ccccc2c1)C(=O)N[C@@H](CCC(N)=O)C(=O)N[C@@H](CCCNC(=N)N)C(N)=O (stereo partly drawn) [Qua-Ile-Nle.PSI.(K)2-Nal-Gln-Arg-NH2]
IC50 [1]: 8.5 nM

CCCC[C@H](NC(=O)[C@@H](NC(=O)c1cnc2ccccc2n1)[C@@H](C)CC)C(=O)CC(Cc1ccc2ccccc2c1)C(=O)N[C@@H](CCC(N)=O)C(N)=O (stereo partly drawn) [Qui--Ile--Nle.psi.(K)2-Nal--Gln--NH2, Qui-Ile-Nle.PSI.(K)2-Nal-Gln-NH2]
inhibition at 10 µM [1]: 54%

CCCC[C@H](NC(=O)c1cnc2ccccc2n1)C(=O)CC(Cc1ccc2ccccc2c1)C(=O)N[C@@H](CCC(N)=O)C(N)=O (stereo partly drawn) [Qui--Nle.psi.(K)2-Nal--Gln--NH2, Qui-Nle.PSI.(K)2-Nal-Gln-NH2]
inhibition at 10 µM [1]: 7%

CCCC[C@H](NC(=O)[C@@H](NC(=O)[C@@H](NC(=O)c1cnc2ccccc2n1)[C@@H](C)O)[C@@H](C)CC)C(=O)CC(Cc1ccc2ccccc2c1)C(=O)N[C@@H](CCC(N)=O)C(N)=O (stereo partly drawn) [Qui-Thr-Ile-Nle.PSI.(K)2-Nal-Gln-NH2]
IC50 [1]: 1110 nM and 8080 nM

Aba--Thr--Ile--Nle--PnF--Gln--Arg--NH2
Relative Rate (HIV protease [2]): 1.46

Ac--Thr--Ile--Nle--Hle--Gln--Arg--NH2
Relative Rate (HIV protease [2]): 0.95

Ac-QNYPIV-NH2 [Ac--Gln--Asn--Tyr--Pro--Ile--Val--NH2]
Relative Rate (HIV protease [2]): 0.04

Ac-TIMMQR-NH2 [Ac--Thr--Ile--Met--Met--Gln--Arg--NH2, Ac-Thr-Ile-Met-Met-Gln-Arg-NH2]
Km (HIV protease [2]; as substrate of HIV protease): 1400 µM | Vmax (HIV protease [2]; as substrate of HIV protease): 725 nmol/min/mg | Relative Rate (HIV protease [2]): 1.00

SQNY-PI
cleavage by HIV protease (HIV protease [3]): failed to be cleaved

SQNY-PIV
rate of cleavage relative to the octapeptide (HIV protease [3]; relative to VSQNYPIV): 90%

VSQNYPIV
Km (HIV protease [3]; gag p17/gag p24 cleavage site substrate): 2500 µM

acetyl-QNY-PIV
cleavage by HIV protease (HIV protease [3]): failed to be cleaved
